Measured values reported in patent US20210093730A1, “BIOMARKERS FOR ANTIBODY-DRUG CONJUGATE MONOTHERAPY OR COMBINATION THERAPY” (Immunomedics, Inc., priority 2019, published 2021).
“And” between values parts separate entries of the source, which are not always exact repeats. Equal entries are not always repeated. Where two headings read alike, the source gives them in different places.

Columns and labels:
[1] = tested on: metastatic triple-negative breast cancer (TNBC); experiment: Phase I/II clinical trial (NCT01631552) of sacituzumab govitecan in relapsed/refractory metastatic TNBC; format: in vivo, human
Procedure: Patients with relapsed/refractory TNBC who had previously failed at at least one prior line of therapy were enrolled in a single-arm, multicenter trial (Bardia et al., 2019, N Engl J Med 380:741-51). The present study reports on 108 patients who had failed at least two prior lines of therapy (median three prior therapies) (Bardia et al., 2019, N Engl J Med 380:741-51). […] Of the 108 patients, 107 were female and 1 was male, with a median age of 55. […] Tumor staging was performed by computed tomography (CT) and MRI at baseline, followed up at 8 week intervals from the start of treatment until disease progression.

[2] = tested on: metastatic urothelial cancer; settings: cited from earlier work
[3] = tested on: metastatic small-cell lung cancer
Text: Previous therapy had to be completed at least 4 weeks before enrollment.
Treatment was continued until disease progression, initiation of alternative anticancer therapy, unacceptable toxicity, or withdrawal of consent.
The primary endpoint was the proportion of patients with a confirmed objective response, assessed approximately every 8 weeks until disease progression, by each institution's radiology group or a contracted local radiology service. […] Partial (PR) or complete responses (CR) required confirmation within 4 to 6 weeks after the initial response. Clinical benefit rate (CBR) is defined as those patients with an objective response plus stable disease (SD)≥4 months. Survival was monitored every 3 months until death or withdrawal of consent.
Safety evaluations were conducted during scheduled visits or more frequently if warranted.
The frequency and severity of adverse events (AEs) were defined by MedDRA Preferred Term and System Organ Class (SOC) version 10, with severity assessed by NCI-CTCAE v4.03.
The protocol provided that objective response rates (ORR) were determined for patients who received ≥2 doses (1 cycle) and had their initial 8-week CT assessment. Duration of response is defined in accordance to RECIST 1.1 criteria, with those having an objective response marked from time of the first evidence of response until progression, while stable disease duration is marked from the start of treatment until progression. PFS and OS were defined from the start of treatment until an objective assessment of progression was determined (PFS) or death (OS).

[4] = 36 patients with objective response
[5] = any grade, 108 patients, 10 mg/kg
[6] = SG given as >3 line, no prior topotecan/irinotecan (N = 9)
[7] = SG given as >3 line, prior topotecan/irinotecan (N = 15)
[8] = patients resistant (N = 19) to 1st line
[9] = patients sensitive (N = 24) to 1st line

For sacituzumab govitecan, the “response rate among patients who had failed previous checkpoint inhibitor therapy” value ([1]; 10 mg/kg) was 44%, the “median duration of response” value [1, 4] was 7.7 months and the “median time to response” value [1, 4] was 2.0 months. The “anemia, grade 3” value ([1]; 108 patients, 10 mg/kg) was 11%, the “complete responses (CR)” value ([1]; 108 patients, 10 mg/kg) was 2.8% and the “decreased white blood cell count, grade 4” value ([1]; 108 patients, 10 mg/kg) was 3%. The “diarrhea, grade 3” value ([1]; 108 patients, 10 mg/kg) was 8%, the “fatigue, grade 3” value ([1]; 108 patients, 10 mg/kg) was 8% and the “hyperglycemia, grade 4” value ([1]; 108 patients, 10 mg/kg) was 1%. For the same substance, the median overall survival ([1]; 108 patients, 10 mg/kg) was 13.0 months, the median progression-free survival ([1]; 108 patients, 10 mg/kg) was 5.5 months and the “nausea, grade 3” value ([1]; 108 patients, 10 mg/kg) was 6%. The “neutropenia, grade 3” value ([1]; 108 patients, 10 mg/kg) was 26%, the “neutropenia, grade 4” value ([1]; 108 patients, 10 mg/kg) was 16% and the “vomiting, grade 3” value ([1]; 108 patients, 10 mg/kg) was 6%. For the same substance, the “response rate (CR+PR)” value ([1]; 108 patients, >=2 prior lines, 10 mg/kg, local assessment) was 33.3%, the “anemia, % of patients” value [1, 5] was 50% and the “diarrhea, % of patients” value [1, 5] was 62%. For the same substance, the “fatigue, % of patients” value [1, 5] was 55%, the “nausea, % of patients” value [1, 5] was 67% and the “neutropenia, % of patients” value [1, 5] was 64%. The “vomiting, % of patients” value [1, 5] was 49%, the “patients with long-term responses of more than 12 months” value ([1]; as of data cutoff) was 6 patients and the “estimated probability that a patient would exhibit a response” value ([1]; at 6 months) was 59.7%. The “estimated probability that a patient would exhibit a response” value ([1]; at 12 months) was 27.0%, the “patients who discontinued treatment due to adverse events” value ([1]; of 108 patients) was “Three” and the “CR (complete response)” value ([2]; 25 assessable patients) was 1 patients. The ORR ([2]; 25 assessable patients) was 36%, the “PR (partial response)” value ([2]; 25 assessable patients) was 8 patients and the “ORR, 1 line of prior chemotherapy” value ([2]; in vivo) was 53.8%. For the same substance, the “ORR, two or more prior therapies” value ([2]; in vivo) was 16.7%, the “median PFS” value ([2]; in vivo) was 7.2 months and the “confirmed PR” value ([3]; 19 patients resistant to first-line platinum) was 16%. The “confirmed PR” value ([3]; 24 patients sensitive to first-line platinum) was 17%, the “PD, %” value ([3]; 43 assessable patients) was “(35%)” and the “stable disease including unconfirmed PR” value ([3]; 43 assessable patients (21 patients)) was 49%. The treatment-related deaths ([3]; 53 patients) was “No treatment-related deaths were observed”, the “OS, seven confirmed PR patients” value ([3]; 95% CI 6.2, 20.9) was 9.2 months and the “OS, ten patients with SD >=4 months” value ([3]; 95% CI 7.5, 22.4) was 8.3 months. The “median PFS, confirmed PR group” value ([3]; 95% CI 7.6, 21.9) was 7.9 months, the “Duration of confirmed objective response, median” value ([3]; Kaplan-Meier, 95% CI 3.6, 19.9) was 5.7 months and the “Clinical benefit rate (PR + SD >= 4 months), %” value ([3]; SG as >=3 line (N = 24)) was “(38%)”. The OS median ([3]; SG as >=3 line (N = 24)) was 7.0 months, the PFS median ([3]; SG as >=3 line (N = 24)) was 3.7 months and the “Clinical benefit rate (PR + SD >= 4 months), %” value ([3]; SG as second line (N = 19)) was “(37%)”. The OS median ([3]; SG as second line (N = 19)) was 8.1 months, the PFS median ([3]; SG as second line (N = 19)) was 3.6 months and the “Clinical benefit rate (PR + SD >= 4 months), %” value [3, 6] was “(33%)”. The OS median [3, 6] was 5.5 months, the PFS median [3, 6] was 3.7 months and the “Clinical benefit rate (PR + SD >= 4 months), %” value [3, 7] was “(40%)”. The OS median [3, 7] was 8.8 months, the PFS median [3, 7] was 3.8 months and 3.6 months and the “grade 3 or 4 anemia” value ([3]; human, in vivo) was 8%. The “grade 3 or 4 diarrhea” value ([3]; human, in vivo) was 9%, the “grade 3 or 4 fatigue” value ([3]; human, in vivo) was 13% and the “grade 3 or 4 hyponatremia” value ([3]; human, in vivo) was 8%. The “grade 3 or 4 increased alkaline phosphatase” value ([3]; human, in vivo) was 8%, the “grade 3 or 4 neutropenia” value ([3]; human, in vivo) was 34% and the infusion-related reactions ([3]; human, in vivo) was “No infusion-related reactions were reported”. For the same substance, the “patients with dose reduction” value ([3]; human, in vivo) was 13%, the “Overall survival, median” value ([3]; intention-to-treat N = 53) was 7.0 months and the “Progression-free survival, median” value ([3]; intention-to-treat N = 53) was 3.6 months. For the same substance, the “duration of SD, patient with 17% tumor shrinkage” value ([3]; one patient with prior CPI) was 8.7 months, the “duration of SD, patient with no change in tumor size” value ([3]; one patient with prior CPI) was 3.7 months and the “tumor shrinkage, patient with SD” value ([3]; one patient with prior CPI) was 17%. The “tumor shrinkage on first assessment, patient with unconfirmed PR” value ([3]; one patient with prior checkpoint inhibitor (CPI)) was 54%, the “Clinical benefit rate (PR + SD >= 4 months), %” value [3, 8] was “(26%)” and the OS median [3, 8] was 6.2 months. For the same substance, the PFS median [3, 8] was 3.6 months, the “Clinical benefit rate (PR + SD >= 4 months), %” value [3, 9] was “(50%)” and the OS median [3, 9] was 8.3 months. The PFS median [3, 9] was 3.8 months, the PR ([3]; second-line setting (3/19)) was 16% and the “median time to response” value ([3]; seven confirmed PR, range 1.8 to 3.6) was 2.0 months. The “confirmed PR” value ([3]; starting dose 8 mg/kg, 13 patients) was 8%, the CBR ([3]; starting dose 10 mg/kg (14/30)) was 47% and the “confirmed PR” value ([3]; starting dose 10 mg/kg (N = 30)) was 20%. For the same substance, the “Kaplan-Meier-derived median duration of SD” value ([3]; ten patients with SD >=4 months, 95% CI 5.2, 9.7) was 5.6 months and the “confirmed PR” value ([3]; third or higher line (N = 24)) was 16%.
